Laboratory results: patent US20230310467A1 (priority 2022, published 2023)

Assay: Stability by UV spectroscopy after storage under normal conditions and stress tests
Type: physicochemical
Settings: stress / rapid test conditions

CCC(CC)COC(=O)[C@H](C)N[P@](=O)(OC[C@H]1O[C@@](C#N)(c2ccc3c(N)ncnn23)[C@H](O)[C@@H]1O)Oc1ccccc1 [RDV, remdesivir]
stability of the solution according to UV spectroscopic data: limitedly stable
